Publication PMC9146228, “Bioactivity of Novel Pyrazole-Thiazolines Scaffolds against Trypanosoma cruzi: Computational Approaches and 3D Spheroid Model on Drug Discovery for Chagas Disease” (Pharmaceutics, 2022)

Assays:
[1] = test system: T. cruzi (Dm28c-Luc) trypomastigotes; experiment: microbe, parasite or virus in culture; type: cell-based, Trypanosoma cruzi; details: Trypanosoma cruzi; Dm28c-Luc, 24 h, mean ± SD; read-out: Trypanocidal Activity Trypomastigotes IC90
Experimental: The screening assays were performed with T. cruzi clone Dm28c (TcI) genetically modified to express luciferase gene (Dm28c-Luc), kindly provided by Dr. Cristina Henriques. Trypomastigotes were isolated from T. cruzi-infected Vero cell monolayers (10:1 parasites/host cell ratio). On the 4th day post-infection (dpi), free trypomastigotes in the culture supernatant were harvested, and the number of parasites/mL was quantified in a Neubauer chamber.
The trypanocidal activity of the pyrazole-thiazoline derivatives was evaluated against trypomastigote and intracellular amastigote forms of T. cruzi (Dm28c-Luc). Tissue-derived trypomastigotes (1 × 10^6 parasites/well) were incubated with pyrazole-thiazoline derivatives and Bz in different concentrations (0.41–100 µM) for 24 h at 37 °C in a humidified atmosphere and 5% CO2. The parasite viability was determined by the addition of luciferin (300 µg/mL), followed by luminescence detection on the GloMax microplate reader (Promega Corporation, Madison, WI, USA).
(§1) After 72 h of treatment, luciferin (300 µg/mL) was added to the culture, and the viability of the parasites was assessed by reading the luminescent signal on the GloMax reader (Promega Corporation, Madison, WI, USA). Controls were also performed in non-toxic concentrations of DMSO (≤ 1%). The concentration that reduces the number of viable parasites by 50% (IC50) or 90% (IC90) was calculated by linear regression. The selectivity index (SI) was calculated as CC50/IC50 for each parasite form.

[2] = test system: T. cruzi (Dm28c-Luc) intracellular amastigotes; experiment: Trypanocidal activity against intracellular amastigotes in infected Vero cell monolayers; type: cell-based, Trypanosoma cruzi; details: Trypanosoma cruzi; Dm28c-Luc in Vero cells, 72 h, mean ± SD; read-out: Trypanocidal Activity Intracellular Amastigotes IC90
Experimental: The susceptibility of intracellular amastigotes to pyrazole-thiazoline derivatives (series 1 and 2) was evaluated using 24 h T. cruzi-infected Vero cell monolayers (10:1 parasite/host cell ratio). Then, the cultures were washed with PBS to remove non-internalized parasites, and 200 μL of fresh medium with a serial dilution of pyrazole-thiazoline derivatives and Bz (0.41–100 µM) was added for 72 h at 37 °C.
as §1

[3] = test system: T. cruzi cysteine proteases (trypomastigote protein extract); experiment: Proteinase activity in solution (Z-FR-AMC); type: biochemical, Trypanosoma cruzi; details: up to 100 µM, Z-FR-AMC substrate
Experimental: Trypomastigote protein extracts (Dm28c-Luc; 10^8 parasites/mL) were obtained as previously described. The cysteine protease activity of the total protein extracts (5 µg) was measured using the reaction buffer (CH3COONa 10 mM, pH 5.0 containing 1 mM DTT), in the presence of the fluorogenic peptide substrate […], CBZ-L-Phenylalanyl-l-Arginine amide (Z -FR-AMC), and serial dilutions of pyrazole-thiazolines derivatives (100–6.25 µM). The samples were incubated for 45 min at room temperature. The variation in arbitrary fluorescence units (AFU), corresponding to the enzymatic cleavage of the fluorogenic substrate, was monitored in a SpectraMax M2e reader (Molecular Devices, Sunnyvale, CA, USA) for 1 h, with excitation values at 370 nm and emission values at 460 nm. Extracts incubated with 0.5% DMSO or with cysteine protease inhibitor E-64 were used as […]. […] The inhibitory activity was expressed as percentage inhibition.

[4] = test system: T. cruzi (Dm28c-Luc)-infected Vero cell spheroids; experiment: 3D culture model: T. cruzi-infected Vero cell spheroids; type: cell-based, Trypanosoma cruzi; details: 72 h; for parasite load, arbitrary luminescence unit (ALU): untreated ALU = 166,678 ± 22,824
Experimental: Tridimensional Vero cell cultures were obtained as previously described. Briefly, the isolated cells (2 × 10^4/well) were cultured in 96-well U-bottom plates previously coated with 1% agarose. The spheroids were kept for 5 days at 37 °C in RPMI 1640 medium supplemented with 10% FBS for complete three-dimensional organization. Both 2D and 3D culture models were used for trypanocidal activity assays.
Vero cell spheroids were infected for 24 h with 2 × 10^5 trypomastigotes (Dm28c-Luc). […] Parasite load was assessed by the luminescence reaction after adding the luciferase substrate (luciferin 300 µg/mL). In addition, fluorescence microscopy images of untreated and treated T. cruzi-infected spheroids were acquired after fixing the cultures with 4% paraformaldehyde in PBS and 4′,6-diamidino-2-phenylindole (DAPI) staining, a DNA dye. The samples were observed under the Zeiss Axio Imager M2 fluorescence microscope (Carl Zeiss, Baden-Württemberg, Germany).

[5] = test system: T. cruzi Dm28c-Luc in Vero cell cultures; experiment: Reversibility (washout) assay; type: cell-based, Trypanosoma cruzi; details: 50 µM, 72 h treatment then 72 h drug-free
Experimental: Then, the cultures were washed with PBS, and maintained for another 72 h at 37 °C in a drug-free medium. Trypomastigotes released in the culture supernatant were detected by transferring the culture medium to 96-well plates, followed by luciferin (300 µg/mL) addition. Viable intracellular amastigotes were also accessed by adding luciferin solution to the cell monolayers.

[6] = Cytotoxicity in vitro assay (CellTiter-Glo); type: cell-based; details: African green monkey, Vero cells, mean ± SD
Experimental: (§2) Vero cells, obtained from the Rio de Janeiro Cell Bank (BCRJ code 0245), were dissociated with trypsin–EDTA solution (0.025%), and maintained in RPMI 1640 medium supplemented with 10% fetal bovine serum (FBS) at 37 °C in a humidified atmosphere of 5% CO2.
(§3) The compound toxicity was evaluated in Vero cell cultures. Briefly, Vero cells were seeded in 96-well white culture plates at a density of 1.5 × 10^4 cells/well for 24 h at 37 °C and 5% CO2. Thereafter, the cell monolayers were washed with phosphate-buffered saline (PBS) and 200 μL of fresh medium with a serial dilution of the pyrazole-thiazoline derivatives and Bz (1.9–500 µM) added. The cell viability was determined by luminescent assay using the CellTiter-Glo Kit (Promega Corporation, Madison, WI, USA) based on the ATP level. After 72 h of treatment, 20 μL of CellTiter-Glo solution was added per well, and cultures were kept for 2 min under agitation. The luminescent signal was read on the GloMax reader (Promega Corporation, Madison, WI, USA). The concentration of compounds that reduced 50% of cell viability (CC50) was calculated by linear regression. At least three independent assays were performed in duplicate.

Vero cells = experiment: Cytotoxicity in vitro assay (CellTiter-Glo); type: cell-based; details: 72 h, mean ± SD
Experimental: as §2, §3

For Clc1ccc(-n2cc(C3=NCCS3)cn2)c(Cl)c1 [Compound 2c, 2-(1-(2,4-dichlorophenyl)-1H-pyrazol-4-yl)-4,5-dihydrothiazole], which IC90 [1] is on record?
Its IC90 is 2.8 ± 0.6 µM.

What about the IC90 [2] of the same molecule?
The IC90 was 16.9 ± 2.5 µM.

What about the “maximum inhibition of cysteine protease activity” value [3] of the same molecule?
The value was at most 10%.

What about the “parasite load, arbitrary luminescence unit (ALU)” value ([4]; 25 µM) of the same molecule?
Its value is 3329 ± 250 ALU.

And the “parasite load, arbitrary luminescence unit (ALU)” value ([4]; 50 µM)?
The value was 1648 ± 343 ALU.

And the “inhibition compared to untreated T. cruzi-infected microtissue” value ([4]; 25 and 50 µM)?
The value was “approximately 98%”.

And the “reduction of release of trypomastigotes in the culture supernatant after washout” value [5]?
The value was 85%.

And the inhibition at 50 µM ([5]; Trypanosoma cruzi, Vero, read-out: inhibition of cell monolayer infection (intracellular amastigotes) after washout)?
The inhibition at 50 µM was 78%.

And the CC50 at 72 h [6]?
The CC50 at 72 h was over 100 µM.

What about the CC50 (Vero cells) of the same molecule?
The CC50 was 107 ± 11.4 µM.
